Measurements: patent US11382888B2, “Combination of topical medications for the treatment of skin diseases and methods of use” (American University of Beirut, priority 2019, dated 2022)

What was measured:
[1] = general statement, no test described; cited from earlier work
patients with ARCI = assay: Left sided vs right sided trial of the lovastatin-cholesterol combination cream in ARCI patients; type: in vivo, human; parameters: Erythema / Total score: scale not given here; conditions: left side glycolic acid only, right side also combination cream
From the text: Each patient was given a severity score based on 5 criteria: (1) skin thickness and/or scaling; (2) pain, pruritus, and/or discomfort; (3) erythema; (4) impact of the condition on the ability to perform daily functions; and (5) the patient's subjective severity scoring, i.e., the patient's own assessment of the severity of the condition.
Five patients applied the combination cream of lovastatin and cholesterol on the right side of the body only, while the glycolic acid was applied to both sides (patients 1, 2, 3, 4, and 6).

In the case of `CC(=O)N1CCN(c2ccc(OCC3COC(Cn4ccnc4)(c4ccc(Cl)cc4Cl)O3)cc2)CC1` (racemic) [Ketoconazole, 1-acetyl-4-[4-[[2-(2,4-dichlorophenyl)-2-[(1H-imidazol-1-yl)-methyl]-1,3-dioxolan-4-yl]methoxy]phenyl]piperazine], the solubility [1] is listed as “low solubility”.
With `O=C(O)CO` [glycolic acid, hydroxyacetic acid] the “% change” value (patients with ARCI; patient 1, at 2 months vs baseline total score) was −5.4545%, the “Ability to perform daily functions” value (patients with ARCI; patient 1, at 2 months) was 5 and the Erythema (patients with ARCI; patient 1, at 2 months) was 9. For the same compound, the Pain/pruritis/discharge (patients with ARCI; patient 1, at 2 months) was 6, the Patient severity scoring (patients with ARCI; patient 1, at 2 months) was 17 and the Response (patients with ARCI; patient 1, at 2 months) was “Mild”. The Skin thickness/scaling (patients with ARCI; patient 1, at 2 months) was 15, the Total score (patients with ARCI; patient 1, at 2 months) was 52 and the “% change” value (patients with ARCI; patient 1, at 3 months vs baseline total score) was −54.545%. The “Ability to perform daily functions/to move” value (patients with ARCI; patient 1, at 3 months) was 2, the Erythema (patients with ARCI; patient 1, at 3 months) was 4 and the Pain/pruritis/discharge (patients with ARCI; patient 1, at 3 months) was 2. The Patient severity scoring (patients with ARCI; patient 1, at 3 months) was 8, the Skin thickness/scaling (patients with ARCI; patient 1, at 3 months) was 9 and the Total score (patients with ARCI; patient 1, at 3 months) was 25. The “% change” value (patients with ARCI; patient 2, at 2 months vs baseline total score) was −12%, the “Ability to perform daily functions” value (patients with ARCI; patient 2, at 2 months) was 5 and the Erythema (patients with ARCI; patient 2, at 2 months) was 6. The Pain/pruritis/discharge (patients with ARCI; patient 2, at 2 months) was 6, the Patient severity scoring (patients with ARCI; patient 2, at 2 months) was 17 and the Response (patients with ARCI; patient 2, at 2 months) was “Mild”. For the same compound, the Skin thickness/scaling (patients with ARCI; patient 2, at 2 months) was 10, the Total score (patients with ARCI; patient 2, at 2 months) was 44 and the “% change” value (patients with ARCI; patient 2, at 3 months vs baseline total score) was −58%. The “Ability to perform daily functions/to move” value (patients with ARCI; patient 2, at 3 months) was 2, the Erythema (patients with ARCI; patient 2, at 3 months) was 4 and the Pain/pruritis/discharge (patients with ARCI; patient 2, at 3 months) was 4. It also gave a Patient severity scoring (patients with ARCI; patient 2, at 3 months) of 5, a Skin thickness/scaling (patients with ARCI; patient 2, at 3 months) of 6 and a Total score (patients with ARCI; patient 2, at 3 months) of 21. For the same compound, the “% change” value (patients with ARCI; patient 3, at 2 months vs baseline total score) was −3.7037%, the “Ability to perform daily functions” value (patients with ARCI; patient 3, at 2 months) was 3 and the Erythema (patients with ARCI; patient 3, at 2 months) was 3. For the same compound, the Pain/pruritis/discharge (patients with ARCI; patient 3, at 2 months) was 3, the Patient severity scoring (patients with ARCI; patient 3, at 2 months) was 10 and the Response (patients with ARCI; patient 3, at 2 months) was “Mild”. The Skin thickness/scaling (patients with ARCI; patient 3, at 2 months) was 7, the Total score (patients with ARCI; patient 3, at 2 months) was 26 and the “% change” value (patients with ARCI; patient 3, at 3 months vs baseline total score) was −40.7407%. For the same compound, the “Ability to perform daily functions/to move” value (patients with ARCI; patient 3, at 3 months) was 1, the Erythema (patients with ARCI; patient 3, at 3 months) was 2 and the Pain/pruritis/discharge (patients with ARCI; patient 3, at 3 months) was 2. For the same compound, the Patient severity scoring (patients with ARCI; patient 3, at 3 months) was 7, the Response (patients with ARCI; patient 3, at 3 months) was “Good” and the Skin thickness/scaling (patients with ARCI; patient 3, at 3 months) was 4. The Total score (patients with ARCI; patient 3, at 3 months) was 16, the “% change” value (patients with ARCI; patient 4, at 2 months vs baseline total score) was −41.818% and the “Ability to perform daily functions” value (patients with ARCI; patient 4, at 2 months) was 3. For the same compound, the Erythema (patients with ARCI; patient 4, at 2 months) was 9, the Pain/pruritis/discharge (patients with ARCI; patient 4, at 2 months) was 4 and the Patient severity scoring (patients with ARCI; patient 4, at 2 months) was 8. The Response (patients with ARCI; patient 4, at 2 months) was “Good”, the Skin thickness/scaling (patients with ARCI; patient 4, at 2 months) was 8 and the Total score (patients with ARCI; patient 4, at 2 months) was 32. The “% change” value (patients with ARCI; patient 4, at 3 months vs baseline total score) was −65.455%, the “Ability to perform daily functions/to move” value (patients with ARCI; patient 4, at 3 months) was 2 and the Erythema (patients with ARCI; patient 4, at 3 months) was 4. It also gave a Pain/pruritis/discharge (patients with ARCI; patient 4, at 3 months) of 2, a Patient severity scoring (patients with ARCI; patient 4, at 3 months) of 5 and a Skin thickness/scaling (patients with ARCI; patient 4, at 3 months) of 6. The Total score (patients with ARCI; patient 4, at 3 months) was 19, the “% change” value (patients with ARCI; patient 6, at 2 months vs baseline total score) was −7.353% and the “Ability to perform daily functions” value (patients with ARCI; patient 6, at 2 months) was 10. The Erythema (patients with ARCI; patient 6, at 2 months) was 13, the Pain/pruritis/discharge (patients with ARCI; patient 6, at 2 months) was 8 and the Patient severity scoring (patients with ARCI; patient 6, at 2 months) was 17. For the same compound, the Response (patients with ARCI; patient 6, at 2 months) was “Mild”, the Skin thickness/scaling (patients with ARCI; patient 6, at 2 months) was 15 and the Total score (patients with ARCI; patient 6, at 2 months) was 63. For the same compound, the “% change” value (patients with ARCI; patient 6, at 3 months vs baseline total score) was −10.2941%, the “Ability to perform daily functions/to move” value (patients with ARCI; patient 6, at 3 months) was 10 and the Erythema (patients with ARCI; patient 6, at 3 months) was 13. For the same compound, the Pain/pruritis/discharge (patients with ARCI; patient 6, at 3 months) was 7, the Patient severity scoring (patients with ARCI; patient 6, at 3 months) was 17 and the Response (patients with ARCI; patient 6, at 3 months) was “Mild”. It also gave a Skin thickness/scaling (patients with ARCI; patient 6, at 3 months) of 14 and a Total score (patients with ARCI; patient 6, at 3 months) of 61.
